In experiment [1] the test system is E. coli ATCC 25922, Salmonella Enteritidis, S. aureus ATCC 29213. As to the kind of experiment: Broth microdilution, panel result (at least one / all strains), Example 2. In kind it is cell-based. Further details: key to inhibitory activity (asterisk): *Indicates inhibitory activity. As to conditions: for inhibitory activity (asterisk): Table 14, against at least one of E. coli ATCC 25922, Salmonella Enteritidis, S. aureus ATCC 29213. The protocol: The antimicrobial activity of the putative AMPs was determined by a broth microdilution assay as described by the Clinical and Laboratory Standards Institute, with the published adaptations for testing of cationic peptides. Escherichia coli 25922 and Staphylococcus aureus 29213 isolates were purchased from the American Type Culture Collection (ATCC; Manassas, VA, USA). A human clinical isolate of Salmonella enterica serovar Enteritidis was provided by the BC Centre for Disease Control. Bacteria from stocks stored at −80° C. were streaked onto nonselective Columbia blood agar with 5% sheep blood (Oxoid) and incubated overnight at 37° C. Next, 2-4 colonies were streaked onto a new agar plate to ensure uniform health of colonies used in the broth microdilution assay. Isolated colonies were suspended in MHB and the optical density was measured with a spectrophotometer to create an initial inoculum concentration of approximately 1×10^8 cfu/mL. The inoculum was diluted 1:250 to a final concentration of 2-8×10^5 cfu/mL, which was confirmed by performing a Total Viability Count (TVC). The TVC consisted of plating a 1:1000 dilution of the final inoculum on nonselective media and was also used to confirm the health and purity of the inoculum in each trial.
Lyophilized 80 μg peptide aliquots synthesized by GenScript (Piscataway, NJ, USA) were resuspended to 1.28 mg/mL with UltraPure water (Thermo Fisher Scientific, Waltham, MA, USA) and serially diluted in polypropylene 96-well microtiter plates (Greiner Bio-One #650261, Kremsmunster, Austria) from 128 down to 0.5 μg/mL. Two columns per plate were reserved for growth and sterility controls. Inoculum was added to the wells containing the peptide and the growth control. Plates were incubated for 20-24 h at 37° C. The minimum inhibitory concentration (MIC) was determined as the lowest peptide concentration where there was no visible bacterial growth.

In another experiment the test system is E. coli ATCC 25922. In kind it is cell-based, Escherichia coli. As to conditions: ATCC 25922. The essentials: (§1)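 MIC taken as lowest peptide level showing no visible growth after 20-24 h at 37° C. Twofold series 128-0.5 μg/mL in Mueller-Hinton broth, polypropylene plates, final inoculum 2-8×10^5 cfu/mL, per CLSI with cationic-peptide adaptations.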
The subject of experiment [2] is Salmonella enterica serovar Enteritidis (human clinical isolate). In kind it is cell-based. Conditions: serovar Enteritidis (human clinical isolate). The essentials: as §1
Another experiment concerns S. aureus ATCC 29213. In kind it is cell-based, Staphylococcus aureus. Conditions: ATCC 29213. The essentials: as §1

Structures are written as SMILES. Where a SMILES comes first, the peptide text is derived from it.

With `CC[C@H](C)[C@H](NC(=O)CN)C(=O)N[C@@H](CC(C)C)C(=O)N[C@@H](CCCNC(=N)N)C(=O)N[C@@H](CO)C(=O)N[C@@H](CC(C)C)C(=O)NCC(=O)N[C@@H](Cc1c[nH]c2ccccc12)C(=O)N[C@H](C(=O)N[C@@H](CCC(N)=O)C(=O)N[C@@H](CCSC)C(=O)N1CCC[C@H]1C(=O)N[C@@H](CCCNC(=N)N)C(=O)N[C@@H](CO)C(=O)N[C@@H](CCCNC(=N)N)C(=O)N[C@@H](CCCNC(=N)N)C(=O)N[C@@H](CCCNC(=N)N)C(=O)N[C@@H](Cc1c[nH]cn1)C(=O)N[C@@H](CCCNC(=N)N)C(=O)O)[C@@H](C)CC` [AnFI2, GILRSLGWIQMPRSRRRHR] (H-GILRSLGWIQMPRSRRRHR-OH; N-terminus and C-terminus assumed), the “inhibitory activity (asterisk)” value in experiment [1] is listed as 721.* GILRSLGWIQMPRSRRRHR.

Take `CC[C@H](C)[C@H](NC(=O)CN)C(=O)N[C@@H](Cc1ccc(O)cc1)C(=O)N[C@H](C(=O)NCC(=O)N[C@@H](CCCNC(=N)N)C(=O)N[C@@H](CC(C)C)C(=O)N[C@@H](CC(C)C)C(=O)N1CCC[C@H]1C(=O)N[C@H](C(=O)N[C@@H](Cc1ccc(O)cc1)C(=O)N[C@H](C(=O)N1CCC[C@H]1C(=O)N[C@@H](CCC(N)=O)C(=O)N1CCC[C@H]1C(=O)N[C@@H](CCCNC(=N)N)C(=O)N1CCC[C@H]1C(=O)N1CCC[C@H]1C(=O)N[C@@H](Cc1c[nH]cn1)C(=O)N1CCC[C@H]1C(=O)N[C@@H](CCCNC(=N)N)C(=O)N[C@@H](CC(C)C)C(=O)N[C@@H](CCCNC(=N)N)C(=O)N[C@@H](CCCNC(=N)N)C(=O)O)[C@@H](C)CC)C(C)C)[C@@H](C)O` [ApCe1] (H-GIYTGRLLPVYIPQPRPPHPRLRR-OH; N-terminus and C-terminus assumed): in experiment [1], the “inhibitory activity (asterisk)” value was 695.* GIYTGRLLPVYIPQPRPPHPRLRR. Further, in experiment [1] (panel of E. coli, Salmonella Enteritidis, S. aureus, up to 128 μg/mL), the “spectrum of antimicrobial activity” value is reported as “antimicrobial activity against Gram-negative bacterial species but not Gram-positives”.

For the compound `CC[C@H](C)[C@H](NC(=O)CN)C(=O)N[C@@H](CC(C)C)C(=O)N[C@@H](CCCNC(=N)N)C(=O)N[C@@H](CC(C)C)C(=O)N[C@H](C(=O)N[C@H](C(=O)N[C@@H](CCCNC(=N)N)C(=O)N[C@@H](CCCNC(=N)N)C(=O)N[C@@H](Cc1ccccc1)C(=O)N[C@@H](CCCNC(=N)N)C(=O)N[C@@H](Cc1ccccc1)C(=O)N[C@@H](CO)C(=O)N1CCC[C@H]1C(=O)N[C@H](C(=O)N[C@@H](CC(N)=O)C(=O)N[C@@H](CC(C)C)C(=O)N[C@@H](CC(N)=O)C(=O)N[C@@H](CCCNC(=N)N)C(=O)N[C@@H](Cc1ccc(O)cc1)C(=O)N[C@H](C(=O)N[C@H](C(=O)N[C@@H](C)C(=O)N[C@@H](CCCNC(=N)N)C(=O)N[C@@H](CC(C)C)C(=O)N[C@H](C(=O)N[C@@H](CO)C(=O)NCC(=O)N[C@H](C(=O)N1CCC[C@H]1C(=O)O)C(C)C)C(C)C)C(C)C)[C@@H](C)O)[C@@H](C)O)[C@@H](C)O)C(C)C` [BoAr6] (H-GILRLVTRRFRFSPTNLNRYTVARLVSGVP-OH; N-terminus and C-terminus assumed), the “inhibitory activity (asterisk)” value in experiment [1] is reported as 790.* GILRLVTRRFRFSPTNLNRYTVARLVSGVP.

As to `CC[C@H](C)[C@H](NC(=O)[C@H](CCCCN)NC(=O)[C@@H](N)CCCNC(=N)N)C(=O)N[C@H](C(=O)N[C@@H](C)C(=O)N[C@H](C(=O)N[C@@H](CO)C(=O)N[C@H](C(=O)N[C@@H](Cc1c[nH]cn1)C(=O)N[C@@H](CCCCN)C(=O)N[C@@H](CC(C)C)C(=O)N[C@@H](CS)C(=O)N[C@@H](CCCNC(=N)N)C(=O)N[C@H](C(=O)N[C@@H](CCCCN)C(=O)N[C@@H](CCCNC(=N)N)C(=O)O)C(C)C)C(C)C)C(C)C)[C@@H](C)CC` [BoUs1, RKIIAVSVHKLCRVKR] (H-RKIIAVSVHKLCRVKR-OH; N-terminus and C-terminus assumed), the “inhibitory activity (asterisk)” value in experiment [1] is 815.* RKIIAVSVHKLCRVKR.

On to `CC[C@H](C)[C@H](NC(=O)[C@@H](N)Cc1ccccc1)C(=O)N[C@@H](CCCCN)C(=O)N[C@H](C(=O)N[C@@H](CCC(N)=O)C(=O)N[C@H](C(=O)N[C@@H](CC(C)C)C(=O)N[C@@H](CCCCN)C(=O)N[C@@H](Cc1c[nH]cn1)C(=O)N[C@@H](CC(C)C)C(=O)N[C@H](C(=O)N[C@@H](C)C(=O)NCC(=O)N[C@H](C(=O)N[C@@H](CCCNC(=N)N)C(=O)N[C@H](C(=O)N[C@@H](C)C(=O)N[C@@H](CCCNC(=N)N)C(=O)NCC(=O)N[C@@H](CC(C)C)C(=O)N[C@@H](CC(=O)O)C(=O)N[C@@H](Cc1c[nH]c2ccccc12)C(=O)N[C@@H](CCCCN)C(=O)N[C@@H](Cc1c[nH]c2ccccc12)C(=O)N[C@@H](CCCNC(=N)N)C(=O)O)C(C)C)C(C)C)C(C)C)C(C)C)[C@@H](C)O` [CaCa2] (H-FIKTQVLKHLVAGVRVARGLDWKWR-OH; N-terminus and C-terminus assumed), for which the “inhibitory activity (asterisk)” value in experiment [1] is reported as 819.* FIKTQVLKHLVAGVRVARGLDWKWR.

Turning to `CC[C@H](C)[C@H](NC(=O)[C@H](CCCCN)NC(=O)[C@H](CS)NC(=O)[C@H](Cc1ccccc1)NC(=O)[C@H](CCCCN)NC(=O)[C@H](CCCNC(=N)N)NC(=O)[C@H](CO)NC(=O)[C@H](Cc1ccc(O)cc1)NC(=O)CNC(=O)[C@H](CS)NC(=O)[C@@H]1CCCN1C(=O)[C@H](C)NC(=O)[C@@H](NC(=O)[C@H](C)NC(=O)[C@H](Cc1ccccc1)NC(=O)[C@H](Cc1ccccc1)NC(=O)[C@H](Cc1ccccc1)NC(=O)[C@H](CCCNC(=N)N)NC(=O)[C@@H](N)CCCNC(=N)N)[C@@H](C)O)C(=O)N[C@H](C(=O)N[C@@H](CCCNC(=N)N)C(=O)N[C@@H](CCCNC(=N)N)C(=O)N[C@@H](CCCCN)C(=O)N[C@@H](CCCNC(=N)N)C(=O)O)[C@@H](C)O` [CaCa4] (H-RRFFFATAPCGYSRKFCKITRRKR-OH; N-terminus and C-terminus assumed), the “inhibitory activity (asterisk)” value in experiment [1] was 816.* RRFFFATAPCGYSRKFCKITRRKR.

Take `CC(C)C[C@H](NC(=O)[C@@H](NC(=O)[C@H](Cc1ccccc1)NC(=O)[C@H](C)NC(=O)CN)C(C)C)C(=O)N[C@@H](Cc1c[nH]c2ccccc12)C(=O)NCC(=O)N1CCC[C@H]1C(=O)N[C@H](C(=O)N1CCC[C@H]1C(=O)N[C@@H](CCCNC(=N)N)C(=O)N1CCC[C@H]1C(=O)N[C@@H](CCCNC(=N)N)C(=O)N[C@@H](CCCNC(=N)N)C(=O)N[C@@H](CCCNC(=N)N)C(=O)O)[C@@H](C)O` [DiLo1, GAFVLWGPTPRPRRR] (H-GAFVLWGPTPRPRRR-OH; N-terminus and C-terminus assumed): in experiment [1], the “inhibitory activity (asterisk)” value is 864.* GAFVLWGPTPRPRRR.

Turning to `CC(C)C[C@H](NC(=O)[C@H](Cc1ccccc1)NC(=O)[C@H](CC(C)C)NC(=O)[C@H](CCCCN)NC(=O)[C@H](Cc1c[nH]cn1)NC(=O)[C@@H](NC(=O)[C@H](Cc1ccccc1)NC(=O)[C@H](CO)NC(=O)[C@H](CC(C)C)NC(=O)[C@@H](NC(=O)[C@H](C)N)C(C)C)C(C)C)C(=O)N[C@@H](CC(N)=O)C(=O)N[C@@H](Cc1ccccc1)C(=O)N[C@@H](CC(C)C)C(=O)N[C@@H](Cc1c[nH]cn1)C(=O)N[C@H](C(=O)N[C@@H](CC(=O)O)C(=O)N[C@H](C(=O)N[C@@H](CO)C(=O)N[C@@H](CCCCN)C(=O)NCC(=O)N[C@@H](CCCCN)C(=O)N[C@@H](CS)C(=O)N[C@@H](CCCNC(=N)N)C(=O)N[C@@H](C)C(=O)N[C@H](C(=O)N[C@@H](CC(C)C)C(=O)N[C@@H](CCC(N)=O)C(=O)O)[C@@H](C)O)[C@@H](C)O)C(C)C` [TeRu3] (H-AVLSFVHKLFLNFLHVDTSKGKCRATLQ-OH; N-terminus and C-terminus assumed), in the experiment with E. coli ATCC 25922, the “MIC (ug/mL) E. coli” value is >128/>128/>128 ug/mL. The “MIC (ug/mL) S. Enteritidis” value in experiment [2] is on record as >128/>128/>128 ug/mL. Moreover, the “MIC (ug/mL) S. aureus” value in the experiment on S. aureus ATCC 29213 was >128/>128/>128 ug/mL.

Turning to `CC[C@H](C)[C@H](NC(=O)[C@@H](N)Cc1ccccc1)C(=O)N[C@@H](CC(C)C)C(=O)N[C@@H](Cc1c[nH]cn1)C(=O)N[C@@H](C)C(=O)N[C@@H](CCCCN)C(=O)N[C@@H](CCCCN)C(=O)N[C@H](C(=O)N[C@@H](CCCNC(=N)N)C(=O)N[C@@H](CO)C(=O)N[C@@H](C)C(=O)N[C@@H](CCCCN)C(=O)O)[C@@H](C)O` [VeSi1, FILHAKKTRSAK] (H-FILHAKKTRSAK-OH; N-terminus and C-terminus assumed), the “MIC (ug/mL) E. coli” value with E. coli ATCC 25922 was >128/>128/>128 ug/mL. Also, the “MIC (ug/mL) S. Enteritidis” value in experiment [2] was >128/>128/>128 ug/mL. Moreover, in the experiment with S. aureus ATCC 29213, the “MIC (ug/mL) S. aureus” value is recorded as >128/>128/>128 ug/mL.

Source of the values: patent US20260242416A1, “ANTIMICROBIAL PEPTIDES” (priority 2023, published 2026).
